Here are results for one compound from US20250319080A1, “BIO[…] FORMULATIONS AND METHODS OF USE AND MANUFACTURE THEREOF” (PURDUE RESEARCH FOUNDATION, priority 2022, published 2025).

Values after ≈ are worked out from the molar mass of the structure shown.

This data set in a line: Solubility of buprenorphine FB in release media. Type of data set: physicochemical. To be noted: 48 hours. As for the experimental part: The solubility of buprenorphine FB was determined in PBS with 0.05% Tween 20 (PBST) and 0.5% w/v sodium dodecyl sulfate (SDS) in water. The solubility was determined by placing excess buprenorphine FB into the media mentioned above at 37° C. and shaking at 40 RPM for 48 hours. After 48 hours, a sample was taken and centrifuged at 15,000 RPM for 5 minutes. The supernatant was then collected and diluted with the same medium, and the concentration was determined using high-performance liquid chromatography.

With `CO[C@@]12CC[C@@]3(C[C@@H]1[C@](C)(O)C(C)(C)C)[C@H]1Cc4ccc(O)c5c4[C@@]3(CCN1CC1CC1)[C@H]2O5` [Buprenorphine FB, Buprenorphine free base], the “Solubility in 0.5% SDS” value (0.5% w/v sodium dodecyl sulfate in water, 37° C.) is recorded as 0.336 mg/mL (≈ 718 µM). Besides, the “Solubility in PBST” value (PBS with 0.05% Tween 20, 37° C.) is given as 0.0088 mg/mL (≈ 18.8 µM).
